Legend:
Format in all cases: in vivo
[1] = system: barnyardgrass (Echinochloa crus-galli); assay: Test B flooded paddy test, plant response rating 0-100; settings: Flood, 250 g ai/ha; scale 0 to 100 (0 no effect, 100 complete control); 13 to 15 days
Procedure, shortened: (§1)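 Ratings were visual and made relative to untreated controls after 13 to 15 greenhouse days.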

[2] = system: ducksalad (Heteranthera limosa); assay: as above; settings: Flood, 250 g ai/ha; scale 0 to 100 (0 no effect, 100 complete control); 13 to 15 days
Procedure, shortened: as §1

[3] = system: sedge, umbrella (small-flower umbrella sedge, Cyperus difformis); assay: as above; settings: Flood, 250 g ai/ha; scale 0 to 100 (0 no effect, 100 complete control); 13 to 15 days
Procedure, shortened: as §1

rice (Oryza sativa) = assay: as above; settings: Flood, 250 g ai/ha; scale 0 to 100 (0 no effect, 100 complete control); 13 to 15 days
Procedure, shortened: as §1

[4] = system: barnyardgrass (Echinochloa crus-galli); assay: Test E pre-/postemergence greenhouse test, plant response rating 0-100; settings: scale 0 to 100; for Plant response rating, Barnyardgrass: Postemergence; for Barnyardgrass plant response rating: Preemergence
Procedure, shortened: (§2)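 Sow seeds in silt loam and treat preemergence; at the same time, spray postemergence on 1- to 4-leaf plants in peat/vermiculite mix. Use a non-phytotoxic solvent plus surfactant as carrier. Hold 14–21 days in greenhouse, then score visually 0–100 against controls.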

[5] = system: arrowleaf sida (Sida rhombifolia); assay: as above; settings: for Plant response rating, Arrowleaf Sida: Postemergence; for Arrowleaf Sida plant response rating: Preemergence
Procedure, shortened: as §2

[6] = system: palmer pigweed (Amaranthus palmeri); assay: as above; settings: scale 0 to 100; for Plant response rating, Pigweed, Palmer: Postemergence; for Pigweed, Palmer plant response rating: Preemergence
Procedure, shortened: as §2

[7] = system: dayflower (Virginia (VA) dayflower, Commelina virginica); assay: as above; settings: scale 0 to 100; for Plant response rating, Dayflower, VA: Postemergence; for Dayflower, VA plant response rating: Preemergence
Procedure, shortened: as §2

[8] = system: waterhemp (common waterhemp, Amaranthus rudis); assay: as above; settings: scale 0 to 100; for Plant response rating, Waterhemp: Postemergence; for Waterhemp plant response rating: Preemergence
Procedure, shortened: as §2

[9] = system: sandbur (southern sandbur, Cenchrus echinatus); assay: as above; settings: scale 0 to 100; for Plant response rating, Sandbur: Postemergence; for Sandbur plant response rating: Preemergence
Procedure, shortened: as §2

[10] = system: hairy beggarticks (Bidens pilosa); assay: as above; settings: scale 0 to 100; for Plant response rating, Beggarticks: Postemergence; for Beggarticks plant response rating: Preemergence
Procedure, shortened: as §2

[11] = system: fall panicum (Panicum dichotomiflorum); assay: as above; settings: scale 0 to 100; for Plant response rating, Panicum, Fall: Postemergence; for Panicum, Fall plant response rating: Preemergence
Procedure, shortened: as §2

[12] = system: Brazilian crabgrass (Digitaria horizontalis); assay: as above; settings: Postemergence, scale 0 to 100
Procedure, shortened: as §2

[13] = system: wild poinsettia (Euphorbia heterophylla); assay: as above; settings: scale 0 to 100; for Plant response rating, Poinsettia, Wild: Postemergence; for Poinsettia, Wild plant response rating: Preemergence
Procedure, shortened: as §2

## O=C(c1ccccc1)c1cn(S(=O)(=O)CCl)nc1-c1cc(Cl)cc(Cl)c1 [Compound 1]
[1]
  Plant response rating, Barnyardgrass: 0
[2]
  Plant response rating, Ducksalad: 0
[3]
  Plant response rating, Sedge, Umbrella: 0
Rice (Oryza sativa)
  Plant response rating, Rice: 0
[4]; 31 g ai/ha
  Plant response rating, Barnyardgrass: 0
[4]; 62 g ai/ha
  Plant response rating, Barnyardgrass: 0
  Barnyardgrass plant response rating: 0
[4]; 125 g ai/ha
  Plant response rating, Barnyardgrass: 0
  Barnyardgrass plant response rating: 0
[4]; 250 g ai/ha
  Plant response rating, Barnyardgrass: 0
  Barnyardgrass plant response rating: 0
[4]; 500 g ai/ha
  Plant response rating, Barnyardgrass: 0
  Barnyardgrass plant response rating: 0
[5]; 31 g ai/ha, scale 0 to 100
  Plant response rating, Arrowleaf Sida: 80
  Arrowleaf Sida plant response rating: 20
[5]; 62 g ai/ha, scale 0 to 100
  Plant response rating, Arrowleaf Sida: 90
  Arrowleaf Sida plant response rating: 25
[5]; 125 g ai/ha, scale 0 to 100
  Plant response rating, Arrowleaf Sida: 95
  Arrowleaf Sida plant response rating: 25
[5]; 250 g ai/ha, scale 0 to 100
  Plant response rating, Arrowleaf Sida: 95
  Arrowleaf Sida plant response rating: 20
[5]; 500 g ai/ha, scale 0 to 100 (0 no effect, 100 complete control)
  Plant response rating, Arrowleaf Sida: 98
[5]; 500 g ai/ha, scale 0 to 100
  Arrowleaf Sida plant response rating: 75
[6]; 31 g ai/ha
  Plant response rating, Pigweed, Palmer: 50
  Pigweed, Palmer plant response rating: 0
[6]; 62 g ai/ha
  Plant response rating, Pigweed, Palmer: 25
  Pigweed, Palmer plant response rating: 20
[6]; 125 g ai/ha
  Plant response rating, Pigweed, Palmer: 75
  Pigweed, Palmer plant response rating: 25
[6]; 250 g ai/ha
  Plant response rating, Pigweed, Palmer: 70
  Pigweed, Palmer plant response rating: 20
[6]; 500 g ai/ha
  Plant response rating, Pigweed, Palmer: 98
  Pigweed, Palmer plant response rating: 100
[7]; 31 g ai/ha
  Plant response rating, Dayflower, VA: 0
  Dayflower, VA plant response rating: 0
[7]; 62 g ai/ha
  Plant response rating, Dayflower, VA: 0
[7]; 125 g ai/ha
  Plant response rating, Dayflower, VA: 0
  Dayflower, VA plant response rating: 0
[7]; 250 g ai/ha
  Plant response rating, Dayflower, VA: 0
  Dayflower, VA plant response rating: 0
[7]; 500 g ai/ha
  Plant response rating, Dayflower, VA: 0
  Dayflower, VA plant response rating: 0
[8]; 31 g ai/ha
  Plant response rating, Waterhemp: 65
  Waterhemp plant response rating: 0
[8]; 62 g ai/ha
  Plant response rating, Waterhemp: 90
  Waterhemp plant response rating: 20
[8]; 125 g ai/ha
  Plant response rating, Waterhemp: 98
  Waterhemp plant response rating: 60
[8]; 250 g ai/ha
  Plant response rating, Waterhemp: 98
  Waterhemp plant response rating: 60
[8]; 500 g ai/ha
  Plant response rating, Waterhemp: 100
  Waterhemp plant response rating: 100
[9]; 31 g ai/ha
  Plant response rating, Sandbur: 0
  Sandbur plant response rating: 0
[9]; 62 g ai/ha
  Plant response rating, Sandbur: 0
  Sandbur plant response rating: 0
[9]; 125 g ai/ha
  Plant response rating, Sandbur: 0
  Sandbur plant response rating: 0
[9]; 250 g ai/ha
  Plant response rating, Sandbur: 0
  Sandbur plant response rating: 20
[9]; 500 g ai/ha
  Plant response rating, Sandbur: 0
  Sandbur plant response rating: 20
[10]; 31 g ai/ha
  Plant response rating, Beggarticks: 30
  Beggarticks plant response rating: 0
[10]; 62 g ai/ha
  Plant response rating, Beggarticks: 95
  Beggarticks plant response rating: 0
[10]; 125 g ai/ha
  Plant response rating, Beggarticks: 98
  Beggarticks plant response rating: 0
[10]; 250 g ai/ha
  Plant response rating, Beggarticks: 98
  Beggarticks plant response rating: 35
[10]; 500 g ai/ha
  Plant response rating, Beggarticks: 98
  Beggarticks plant response rating: 35
[11]; 31 g ai/ha
  Plant response rating, Panicum, Fall: 0
  Panicum, Fall plant response rating: 0
[11]; 62 g ai/ha
  Plant response rating, Panicum, Fall: 0
  Panicum, Fall plant response rating: 0
[11]; 125 g ai/ha
  Plant response rating, Panicum, Fall: 0
  Panicum, Fall plant response rating: 0
[11]; 250 g ai/ha
  Plant response rating, Panicum, Fall: 0
  Panicum, Fall plant response rating: 0
[11]; 500 g ai/ha
  Plant response rating, Panicum, Fall: 0
  Panicum, Fall plant response rating: 0
[12]; 31 g ai/ha
  Plant response rating, Crabgrass, Brazil: 0
[12]; 62 g ai/ha
  Plant response rating, Crabgrass, Brazil: 0
[12]; 125 g ai/ha
  Plant response rating, Crabgrass, Brazil: 0
[12]; 250 g ai/ha
  Plant response rating, Crabgrass, Brazil: 0
[12]; 500 g ai/ha
  Plant response rating, Crabgrass, Brazil: 0
[13]; 31 g ai/ha
  Plant response rating, Poinsettia, Wild: 0
  Poinsettia, Wild plant response rating: 0
[13]; 62 g ai/ha
  Plant response rating, Poinsettia, Wild: 0
  Poinsettia, Wild plant response rating: 0
[13]; 125 g ai/ha
  Plant response rating, Poinsettia, Wild: 0
  Poinsettia, Wild plant response rating: 0
[13]; 250 g ai/ha
  Plant response rating, Poinsettia, Wild: 0
[13]; 500 g ai/ha
  Plant response rating, Poinsettia, Wild: 0
  Poinsettia, Wild plant response rating: 0
